Patent US20100310543A1, “METHOD OF PREVENTING AND TREATING ACUTE BRAIN PATHOLOGIES” (UNIVERSITY OF ZURICH, priority 2007, published 2010)
Several values for one entry are separate records, joined by “and”; a condition that tells them apart may be missing. Equal values may be shown once. Read-outs that look alike come from different tables or passages of the source.

Experiments:
ERK1 = assay: Western blot of phosphorylated ERK1 in slices subjected to OGD; details: control slices treated with tautomycin (3 nM) and subjected to OGD
Experimental: (§1) Acute slices (hippocampus, cortex and striatum) were exposed to 15 to 25-min of hypoxic/aglycemic conditions by perfusion with aCSF containing no glucose (replaced with equimolar sucrose) and gassed with N2/CO2 (95/5%) (Lobner and Lipton, 1993; Raley-Susman and Lipton, 1990). […] The OGD solution reached the recording chamber within 30 seconds and replaced the normoxic aCSF within 2-3 min.
(§2) Drugs for slice recordings were bath-applied for 2 hours before recording in oxygenated aCSF. Okadaic acid (Alexis Corporation, Switzerland) and tautomycin (Alexis Corporation and Sigma Aldrich, Switzerland) were dissolved in DMSO (30 mM) and methanol or ethanol (1 mM), respectively, and stock solutions were diluted further in aCSF the day of the experiment. The respective solvents were used for drug-control experiments. For both mutant and control slices, the aCSF was supplemented with doxycycline hydrochloride (Sigma, Buchs, Switzerland) at 8 ng/ml.
(§3) Tissue samples from the striatum ipsilateral and contralateral to MCAO or from acute forebrain slices (hippocampus, cortex and striatum) were homogenized in lysis buffer and centrifuged. Supernatants were resolved on SDS-PAGE and proteins were transferred onto PVDF membranes. […] The band intensity was determined by densitometry and corrected for protein loading using anti-β-actin antibody (A5316; Sigma) as an internal control.

[1] = system: hippocampal slices (Schaffer collaterals/CA1); assay: LTD (f-EPSP slope) in hippocampal slices; assay type: cell-based, mouse; details: 1 nM tautomycin, LTD without OGD
Experimental: Adult mice were killed by cervical dislocation and the heads were immediately immersed in freshly prepared ice-cold artificial cerebrospinal fluid (aCSF: 119 mM NaCl, 11 mM D-glucose, 1.3 mM MgCl2.6H2O, 1.3 mM NaH2PO4, 2.5 mM KCl, 2.5 mM CaCl2, 26 mM NaHCO3, gassed with 95% O2/5% CO2 for a minimum of 20-min) for at least 3 min. Brains were quickly removed and hippocampi were extracted for electrophysiological recordings. Acute slices (400 μm thick) were prepared with a vibratome (Leica VT 1000S, Germany) in ice-cold oxygenated aCSF. Slices were transferred to an interface chamber at 34° C. for 40 to 50 min then kept at room temperature for at least 1-2 hours before recording. Recordings were performed in a submersion chamber (Slice Mini Chamber III/IV, Luigs & Neumann, Germany) continuously perfused with aCSF at approximately 1.1 ml/min. […] Evoked f-EPSP were recorded in the stratum radiatum with a borosilicate micropipette filled with NaCl 3M or aCSF. […] Baseline responses were recorded for 10-min or until stable. For extracellular recordings in example 8, a monopolar electrode is placed in the Schaffer collateral fibers, and stimulation is applied at 0.033 Hz with stimulus intensity ranging from 20 to 80 μA, yielding evoked field EPSPs (fEPSPs) of […]. fEPSPs are recorded in the stratum radiatum using a borosilicate micropipette filled with aCSF. […]

JNK2 = assay: Western blot of phosphorylated JNK2 in slices subjected to OGD; details: PP1 inhibition (tautomycin) in vitro
Experimental: as §1, §2, §3

JNK1 = assay: Western blot of phosphorylated JNK1 in slices subjected to OGD; details: PP1 inhibition (tautomycin) or OGD in vitro
Experimental: as §1, §2, §3

ERK2 = assay: Western blot of phosphorylated ERK2 in slices subjected to OGD; details: control slices treated with tautomycin (3 nM) and subjected to OGD
Experimental: as §1, §2, §3

PP1 [2] = details: 1 nM tautomycin (submaximal dose); cited from earlier work
[3] = system: acute hippocampal slices (area CA1); assay: f-EPSP recovery after transient OGD in acute hippocampal slices; assay type: cell-based, mouse; details: for mean f-EPSP slope 80-90 min after the onset of OGD: 25 min OGD, % of pre-OGD baseline
Experimental: Adult mice were killed by cervical dislocation and the heads were immediately immersed in freshly prepared ice-cold artificial cerebrospinal fluid (aCSF: 119 mM NaCl, 11 mM D-glucose, 1.3 mM MgCl2.6H2O, 1.3 mM NaH2PO4, 2.5 mM KCl, 2.5 mM CaCl2, 26 mM NaHCO3, gassed with 95% O2/5% CO2 for a minimum of 20-min) for at least 3 min. Brains were quickly removed and hippocampi were extracted for electrophysiological recordings. Acute slices (400 μm thick) were prepared with a vibratome (Leica VT 1000S, Germany) in ice-cold oxygenated aCSF. Slices were transferred to an interface chamber at 34° C. for 40 to 50 min then kept at room temperature for at least 1-2 hours before recording. Recordings were performed in a submersion chamber (Slice Mini Chamber III/IV, Luigs & Neumann, Germany) continuously perfused with aCSF at approximately 1.1 ml/min. A monopolar electrode was placed in the stratum radiatum to activate Schaffer collaterals and test stimuli were applied at 0.033 Hz at an intensity set to evoke 1/3 of the maximum f-EPSP. Evoked f-EPSP were recorded in the stratum radiatum with a borosilicate micropipette filled with NaCl 3M or aCSF. The signal was amplified with an AXOPATCH 200B amplifier (Axon Instruments/Molecular Devices, Germany) and sampled using pCLAMP. Baseline responses were recorded for 10-min or until stable. For extracellular recordings in example 8, a monopolar electrode is placed in the Schaffer collateral fibers, and stimulation is applied at 0.033 Hz with stimulus intensity ranging from 20 to 80 μA, yielding evoked field EPSPs (fEPSPs) of […]. fEPSPs are recorded in the stratum radiatum using a borosilicate micropipette filled with aCSF.
For each electrophysiological experiment, the average slope of individual f-EPSP was measured from the initial 1-1.5 ms-portion following the fiber volley using Clampfit (Axon Instruments, Germany). For statistical analyses, the f-EPSP slope was averaged over 1-min and analyzed by three-way analysis of variance (ANOVA) using Statview 5.0 with sequences (10-min) and stimulation (1-min bins) as repeated measures. […] Infarct volume and DNA fragmentation were analyzed by two-tailed t-tests. Western blots were evaluated by one-way ANOVA followed by LSD post-hoc tests. Statistical significance was set at p=0.05, data are presented as mean±SEM.
Graded doses of OA were used to inhibit both PP1 and PP2A, or PP2A alone.

PP2A = details: literature ranges, cited from earlier work
hippocampal slices = details: 1 μM OA; cited from earlier work
PP1 [4] = details: literature ranges, cited from earlier work

Compound | increase in phosphorylated ERK1 (ERK1) | f-EPSP slope after LTD, % of baseline at 90 min ([1]; I-1* mutant slices) [%] | f-EPSP slope after LTD, % of baseline at 90 min ([1]; control slices) [%] | phosphorylated JNK2 (JNK2) | JNK1 phosphorylation (JNK1) | increase in phosphorylated ERK2 (ERK2) | PP1 inhibition (PP1 [2]) | mean f-EPSP slope 80-90 min after the onset of OGD ([3]; 1 nM drug) [%] | f-EPSP slope after LTD+OGD, % of baseline 90 min after LTD induction ([3]; 1 nM tautomycin, I-1* mutant slices, LTD 10 min prior to OGD) [%] | mean f-EPSP slope 80-90 min after the onset of OGD ([3]; 3 nM drug) [%] | mean f-EPSP slope 80-90 min after the onset of OGD ([3]; 10 nM drug) [%] | mean f-EPSP slope 80-90 min after the onset of OGD ([3]; 100 nM drug) | IC50 (PP2A) | effect on LTP induced by a single 1-sec train at 100 Hz (hippocampal slices) | IC50 (PP1 [4]) [nM] | IC50 (PP1 [4]; listed as okadaic acid) [nM] | mean f-EPSP slope 80-90 min after the onset of OGD ([3]; 0.1 nM drug) [%] | mean f-EPSP slope 80-90 min after the onset of OGD ([3]; 1 μM drug) | IC50 (PP2A; listed as okadaic acid) [nM]
CO[C@H]([C@H](O)CC(=O)[C@@H](C)[C@@H](O)CC[C@@H](C)[C@@H]1O[C@]2(CC[C@@H](C)[C@H](CC[C@H](C)C(C)=O)O2)CC[C@@H]1C)[C@H](OC(=O)C[C@@H](O)C1=C(C)C(=O)OC1=O)C(C)C [tautomycin] | +366.8±48.6% | 96.3±3.6 | 85.2±3.0 | did not increase | not altered | +404.1±28.5% | about 30% | 88.6±1.5 | 37.0±10.8 | 31.4±4.6 | 4.4±2.9 | 0.9±1.3% | 10 to 23 nM and 10 to 20 nM | – | – | – | – | – | –
C=C1[C@@H](O)[C@@H]2O[C@]3(CC[C@H](/C=C/[C@@H](C)[C@@H]4CC(C)=C[C@@]5(O[C@H](C[C@@](C)(O)C(=O)O)CC[C@H]5O)O4)O3)CC[C@H]2O[C@@H]1[C@@H](O)C[C@H](C)[C@H]1O[C@@]2(CCCCO2)CC[C@H]1C [OA, okadaic acid] | – | – | – | – | – | – | – | 86.8±5.2 | – | – | 56.6±23.9 | 43.5±16.6% and 43.1±15.6% | 0.1 to 1 nM | blocked | 20 to 100 | 10 to 1300 | 76.6±20.5 | 20.2±13.9% and 20.3±14.4% | 0.02 to 1
